90 molecules from PubChem BioAssay AID1249 (Columbia University Molecular Screening Center, 2008) can be followed below.

Activity calls are given as the source filed them. The rule behind the calls is not given here.

In general, inhibition refers to the change of the read-out against control, counted positive when it falls.

A short description of this assay: cellular cytoskeleton assembly phenotype modulators – imaging, high-content imaging, retest and dose response, confirmation (AID 1249).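 Note: compound exposure lasted 24 h before fixation; plate controls were untreated cells for no effect and reference compound treated cells for full effect.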 Conditions: cell-based imaging, cytoskeleton assembly phenotype, high content; at 2 µM; stronger effect = higher value.

On to `CCOC(=O)c1cc2c(ccn2C)n1Cc1ccccc1C`, for which the inhibition was 2.4% (inactive).
The value for `COc1ccc(-c2cc3ccc(OCc4nn[nH]n4)cc3oc2=O)cc1OC` was 2.8% (inactive).
As to `COc1ccc(-c2nc(-c3ccc(NC(=O)c4ccc(Br)o4)cc3)no2)cc1OC`, the inhibition was -10.3% (inactive).
`CCOC(=O)c1ccc(-n2c(=S)sc3c(=O)[nH]c(C)nc32)cc1`: the inhibition is 3.6% (inactive).
The value for `O=S(=O)(c1ccc(Cl)cc1)c1snnc1-c1ccccc1` was 9.2% (inactive).
`CCn1c(SCC(=O)Nc2cc(C)on2)nnc1-c1ccccc1`: the inhibition was 0.6% (inactive).
The value for `Cc1ccc(C(=O)CSc2nnc(COc3ccc(C#N)cc3)n2-c2ccccc2)cc1` was -3% (inactive).
The same measure for `CCCc1cc(=O)[nH]c(SCC(=O)Nc2nonc2N)n1`: 2.7% (inactive).
The value for `O=C(CCS(=O)(=O)c1ccccc1)Nc1nc2c(s1)COc1ccccc1-2` was 6.6% (inactive); that for `Cc1cccc(NC(=O)CN2NS(=O)(=O)c3ccccc3C2=O)c1` was -4.6% (inactive).
As to `Cc1ccccc1CN1C(=O)C2(OCCCO2)c2ccccc21`, the inhibition is 3.7% (inactive).
With `COc1ccc(NC(=O)/C(Cl)=C(/Cl)S(=O)(=O)Cc2ccc(C)cc2)cn1`, the inhibition was 5.2% (inactive).
On to `CC1(C)Cc2c(oc3ncn4ncnc4c23)CO1`, for which the inhibition was 2.7% (inactive).
Consider `CN1Cc2cc(C(=O)c3cc(Cl)cc(CSc4ncccn4)c3O)cnc2NC1=O`, for which the inhibition was 10.6% (inactive).
As for `COc1cccc(OC)c1NC(=O)CN1CCC(NC(=O)c2cccc(F)c2)CC1`, the inhibition is 0.4% (inactive).
The value for `O=c1c(-c2ccc(Br)cc2)coc2c(CN3CCOCC3)c(O)ccc12` was 3.1% (inactive); that for `O=C(c1ccc([N+](=O)[O-])cc1)N(Cc1ccc(Cl)cc1)N1C(=O)CCCC1=O` was -0.3% (inactive); that for `C=CCOc1c2ccc(C(=O)NCc3ccccc3OC)cc2nn1C` was -6.1% (inactive).
The value for `O=C(NC1CC1)c1ccc(S(=O)(=O)NCC2CCCCC2)cc1` was -2.7% (inactive).
The same measure for `Cc1ccc2nc(CCc3nc4ccc(C)cc4o3)oc2c1`: 5.4% (inactive).
In the case of `Cc1cc(NC(=O)NC(=O)c2cccc(OC(F)(F)C(F)F)c2)n[nH]1`, the inhibition is -2.9% (inactive).
The same measure for `CN(Cc1ccccc1)C(=O)c1ccccc1NC(=O)c1ccccc1`: 5.1% (inactive); for `COc1ccc(CCN(Cc2cc3cccc(C)c3[nH]c2=O)C(=O)N2CCCC2)cc1OC`: 4.4% (inactive).
In the case of `O=c1cc(C(Cl)(Cl)Cl)oc2c1ccc1ccccc12`, the inhibition was -13.6% (inactive).
The same measure for `CCC(=O)Nc1cccc(NC(=O)c2cc3ccccc3o2)c1`: -5.6% (inactive); for `CCCC(=O)Nc1ccc(Cl)c(NC(=O)CC)c1`: -2% (inactive); for `CN=C(Nc1cc(C)nn1CCC#N)c1ccccc1F`: -24.5% (inactive).
The same measure for `Cc1ccc(-c2cc(C(=O)NCc3ccccn3)no2)cc1`: 3.6% (inactive).
The value for `CCCOC(=O)C1C2C=C[C@]3(CN(CCc4ccccc4)C(=O)[C@H]13)O2` (stereo not given in full) was -9.4% (inactive); that for `CC(=O)Nc1ccc(S(=O)(=O)n2cnc(C)c2)cc1` was 6.7% (inactive).
Consider `COC(=O)c1sccc1NC(=O)CCC1CCCC1`, for which the inhibition was -0.4% (inactive).
The same measure for `C=CCc1ccccc1OCC(O)CNC` (stereo not given): 2.3% (inactive).
With `Cc1cccc(N(CC(=O)N/N=C/c2ccc(OCC(=O)NCc3ccco3)cc2)S(C)(=O)=O)c1C`, the inhibition is -6.2% (inactive).
With `Cn1nc(C(F)(F)F)c(C(=O)Nc2ccc(F)cc2F)c1Sc1ccc(C(F)(F)F)cc1`, the inhibition is 13.2% (inactive).
Turning to `CCc1ccc(C(=O)/C=C/c2ccc([N+](=O)[O-])o2)cc1`, the inhibition was -3.9% (inactive).
The value for `Cc1cccc(N=C2NC(=O)CS2)c1C` was 7% (inactive).
Take `COc1cc2c(O)c3c(c(-c4ccc5c(c4)OCO5)c2cc1OC)C(=O)OC3`: the inhibition was 1.5% (inactive).
The same measure for `Cc1ccc(Cl)cc1N1CCN(C(c2cccnc2)c2nnnn2C2CCCCC2)CC1` (stereo not given): 12.1% (inactive); for `CC(C)NC1CS(=O)(=O)CC1O` (stereo not given): 4.9% (inactive).
The value for `CC(=NCCCO)c1c(O)n(Cc2ccccc2)c(=O)[nH]c1=O` was 3.6% (inactive); that for `CCCc1nnc(SCC(=O)O)n1/N=C/c1ccc2c(c1)OCO2` was -4.9% (inactive).
On to `Nc1nc2c3ccccc3nc(Cc3ccccc3)n2n1`, for which the inhibition is 3.4% (inactive).
The same measure for `Cc1cc(C)n(-c2nc(-c3cccc(Cl)c3)cs2)n1`: -10.2% (inactive); for `O=C(O)c1cccc(S(=O)(=O)Nc2ccccc2Cl)c1`: -2.5% (inactive); for `CC(C)C(=O)N1CCN(c2nc(-c3ccccc3)c3c(c2C#N)CC(C)(C)OC3)CC1`: -5.6% (inactive).
The value for `Cc1c(C(=O)N2CCN(c3ccccc3F)CC2)sc2ncn(CC(=O)N3CCOCC3)c(=O)c12` was -3.2% (inactive); that for `COC(=O)c1cscc1NC(C)=O` was 13.2% (inactive).
For the molecule `CC1C(c2ccccc2)C(C#N)(C#N)C2(C#N)C(=O)NC1(N)C2C` (stereo not given), the inhibition was 0.4% (inactive).
Turning to `Cc1ccc(O)c(NC(=O)CCC2CCCCC2)c1`, the inhibition is -15.6% (inactive).
The value for `CCOc1ccc(C=O)cc1CN1CCCCC1` was -10% (inactive).
The value for `Cc1ccc2nc(SCC(=O)Nc3cc(C(F)(F)F)ccc3N3CCOCC3)[nH]c2c1` was -6.4% (inactive).
The value for `CSc1nc2sc(-c3ccccc3)cc2c(=O)n1N` was -0.9% (inactive); that for `O=C(O)Cc1ccc(NC(=O)C2CC=CCC2C(=O)O)cc1` (stereo not given) was -9.1% (inactive).
As to `CSc1ccc(CNC2CN3CCC2CC3)cc1` (stereo not given), the inhibition is 1.5% (inactive).
The same measure for `CCN1CCN(Cc2c(C)[nH]c3ccc(C(=O)OC)cc3c2=O)CC1`: -6.7% (inactive).
The value for `C=CCn1c(SCc2c(C)noc2C)nc2ccccc2c1=O` was 4.2% (inactive); that for `COc1cc(CC(=O)Nc2ncc(C)s2)cc(OC)c1OC` was -7.4% (inactive).
For the molecule `CCOC(=O)N1CCN(C(=O)COc2ccc(Cl)cc2C)CC1`, the inhibition was 0.3% (inactive).
The value for `CO/N=C/C(=N\Nc1ccc(C)cc1)C(=O)c1ccc(OC)cc1` was -0.5% (inactive); that for `CCOC(=O)N1CCC(NC(=O)c2ccc(CNS(=O)(=O)c3ccc(F)cc3)cc2)CC1` was -3.7% (inactive); that for `Cc1cccc(OCCN2CSC(=S)N(C)C2)c1` was 2.2% (inactive).
The value for `CCOC(=O)c1c(C)c(C(=O)O)n(C)c1C` was -14.7% (inactive); that for `CC1=C(C(=O)OCCOC(C)C)C(c2cccnc2)C2=C(CCCC2=O)N1` (stereo not given) was -18.2% (inactive); that for `CC1Oc2ccccc2C=C1/C=C1/SC(N2CCOCC2)=NC1=O` (stereo not given) was -1.2% (inactive).
The same measure for `O=c1ccc(Oc2nc(N3CCOCC3)nc(N3CCOCC3)n2)nn1-c1ccccc1`: 9.9% (inactive); for `O=C1C(Cc2ccccc2)NC(=S)N1c1ccccc1` (stereo not given): 3.1% (inactive).
Consider `O=[N+]([O-])c1ccc(Sc2nc3ccccc3o2)c([N+](=O)[O-])c1`, for which the inhibition is 4.3% (inactive).
The same measure for `COc1cc(NC(=O)c2ccc(COCC(F)(F)F)o2)cc(OC)c1OC`: 5.2% (inactive); for `CC(C)c1nnc(NC(=O)CCC(=O)N2CCN(C3CCCCC3)CC2)s1`: 3.6% (inactive).
The same measure for `COc1cccc(C(=O)Nc2cccc(-c3nc4ncccc4o3)c2C)c1`: 1.2% (inactive); for `NC(=S)N/N=C/c1ccc(-c2ccc(Cl)c(Cl)c2)o1`: -6.9% (inactive); for `Cn1cc([N+](=O)[O-])c(C(=O)Nc2ccc3c(c2)OCCO3)n1`: -7.4% (inactive).
With `CN1C(=O)C(C(=O)NC(C)(C)C)C2c3ccccc3OC13CCCCC23` (stereo not given), the inhibition was 1.7% (inactive).
The value for `CSc1ccc(S(=O)(=O)Nc2ccc3c4c(cccc24)CC3)cc1` was -10% (inactive); that for `C/C(Cl)=C\Cn1c(NCCCn2ccnc2)nc2c1c(=O)n(C)c(=O)n2C` was -1.5% (inactive); that for `CCCCN(C)CCCNC(=O)c1ccc2c(c1)NC(=O)C(N1CCOCC1)S2` (stereo not given) was 5.4% (inactive).
Turning to `Cc1ccc(S(=O)(=O)N(CC(=O)NCc2ccco2)Cc2ccc(F)cc2)cc1`, the inhibition is -16.6% (inactive).
The same measure for `Cc1ccc(-n2nc3ccc(NC(=O)/C=C/c4ccco4)cc3n2)cc1C`: -5.3% (inactive); for `Cn1c(NCc2c[nH]c3ccccc23)nc2ccccc21`: -13.6% (inactive); for `Cc1nn(-c2cc(C)c3ccccc3n2)c2c1C1C(C2)C1(C)C` (stereo not given): 3.3% (inactive).
Take `CC(C)(C)NS(=O)(=O)c1ccc(Oc2ncc(C(F)(F)F)cc2Cl)cc1`: the inhibition was 12.1% (inactive).
The same measure for `CCOc1ccccc1C(=O)NCCC(=O)O`: 10.6% (inactive).
The value for `CC1CCN(C(=O)C2c3ccccc3C(=O)N3CCc4ccccc4C23)CC1` (stereo not given) was -3.8% (inactive).
The same measure for `Cc1cc(C)n(-c2nc3ccccc3nc2N2CCN(C(=O)c3ccc(Cl)cc3)CC2)n1`: -2.4% (inactive).
As to `CCn1c(SCC(=O)N2CCN(c3cccc(Cl)c3)CC2)nc2ccccc2c1=O`, the inhibition was -3.6% (inactive).
With `Cc1cc(C)cc(NC(=O)CC2NCCNC2=O)c1` (stereo not given), the inhibition was -1.4% (inactive).
`C=C(C)c1cccc(C(C)(C)NC(=O)Nc2ncccn2)c1`: the inhibition was 1.8% (inactive).
The same measure for `O=C(O)CCC(=O)NC1CCCCCCC1`: 3.8% (inactive).
The value for `O=C(CF)NC(Nc1cccc2cccnc12)C(Cl)(Cl)Cl` (stereo not given) was -8.8% (inactive); that for `Cc1nc(S(=O)(=O)N(C)Cc2ccccc2)c(C#N)c(C)c1Cl` was -5.1% (inactive).
